The numbers were not newly measured in patent US20240423911A1, “EMULSION COMPOSITION” (AstaReal Co., Ltd., priority 2018, published 2024), which cites them from elsewhere.

Molecules are shown by their SMILES.

For data set [1] the following is noted: Takahashi et al. 2004.

With `CC1=C(/C=C/C(C)=C/C=C/C(C)=C/C=C/C=C(C)/C=C/C=C(C)/C=C/C2=C(C)C(=O)C(O)CC2(C)C)C(C)(C)CC(O)C1=O` (stereo not drawn) [Astaxanthin, 3,3′-dihydroxy-β,β-carotene-4,4′-dione], where the note is “higher than that of vitamin E”, the “antioxidative activity relative to vitamin E” value is recorded as “approximately 1000 times”. For the same compound, the “antioxidative activity relative to β-carotene” value (higher than that of β-carotene) is ~40 times. The mutagenicity result in data set [1] is given as “no mutagenicity has been observed”.
